Experimental data taken from ChEMBL document CHEMBL5120839, “Design, synthesis and antibacterial activity of novel pleuromutilin derivatives with thieno[2,3-d]pyrimidine substitution” (Eur J Med Chem, 2022).
Converted amounts (≈) assume the structure as drawn.

Key:
Type in all cases: functional
Staphylococcus aureus [1] = test: Antibacterial activity against Staphylococcus aureus assessed as diameter of the inhibition circle at 1 mg/ml incubated for 48 hrs
Escherichia coli [2] = test: Antibacterial activity against Escherichia coli assessed as bacterial growth by measuring optical density at 0.5 times MIC incubated for 12 hrs by real time growth curve analysis
Streptococcus agalactiae [3] = test: Antibacterial activity against Streptococcus agalactiae assessed as bacterial growth by measuring optical density at 1 to 2 times MIC incubated for 12 hrs by real time growth curve analysis
Staphylococcus aureus [4] = test: Antibacterial activity against Methicillin-resistant Staphylococcus aureus BNCC 337371 assessed as inhibition of bacterial growth incubated for 24 hrs by microbroth two-fold dilution method
Staphylococcus aureus [5] = test: Antibacterial activity against Staphylococcus aureus assessed as inhibition of bacterial growth incubated for 24 hrs by microbroth two-fold dilution method
Escherichia coli [6] = test: Antibacterial activity against Escherichia coli assessed as bacterial growth by measuring optical density at 1 to 2 times MIC incubated for 12 hrs by real time growth curve analysis
Escherichia coli [7] = test: Antibacterial activity against Escherichia coli assessed as inhibition of bacterial growth incubated for 24 hrs by microbroth two-fold dilution method
Staphylococcus aureus [8] = test: Antibacterial activity against Staphylococcus aureus assessed as bacterial growth by measuring optical density incubated for 12 hrs by real time growth curve analysis
Streptococcus agalactiae [9] = test: Antibacterial activity against Streptococcus agalactiae assessed as inhibition of bacterial growth incubated for 24 hrs by microbroth two-fold dilution method
Streptococcus agalactiae [10] = test: Antibacterial activity against Streptococcus agalactiae assessed as bacterial growth by measuring optical density at 0.5 times MIC incubated for 12 hrs by real time growth curve analysis

## C=C[C@]1(C)C[C@@H](OC(=O)CSc2nc(N3CCNCC3)c3ccsc3n2)[C@]2(C)[C@H](C)CC[C@]3(CCC(=O)[C@H]32)[C@@H](C)[C@@H]1O
Staphylococcus aureus [1]
  inhibition zone diameter: 26.8 mm
Escherichia coli [2]
  OD: <0.3
Streptococcus agalactiae [3]
  OD: 0.1
Staphylococcus aureus [4]
  MIC: 0.122 µg/mL (≈ 0.199 µM)
Staphylococcus aureus [5]
  MIC: 0.0076 µg/mL (≈ 0.0124 µM)
Escherichia coli [6]
  OD: 0.1
Escherichia coli [7]
  MIC: 0.976 µg/mL (≈ 1.59 µM)
Staphylococcus aureus [8]
  OD: <0.3
Streptococcus agalactiae [9]
  MIC: 0.0153 µg/mL (≈ 0.025 µM)
Streptococcus agalactiae [10]
  OD: <0.3

## C=C[C@]1(C)C[C@@H](OC(=O)CSc2ncc(C)c(NCCO)n2)[C@]2(C)[C@H](C)CC[C@]3(CCC(=O)[C@H]32)[C@@H](C)[C@@H]1O
Staphylococcus aureus [1]
  inhibition zone diameter: 27.6 mm
Staphylococcus aureus [5]
  MIC: 0.244 µg/mL (≈ 0.447 µM)
Escherichia coli [7]
  MIC: 3.91 µg/mL (≈ 7.16 µM)
Streptococcus agalactiae [9]
  MIC: 0.122 µg/mL (≈ 0.224 µM)

## C=C[C@]1(C)C[C@@H](OC(=O)CSc2nc(N3CCN(CC)CC3)c3ccccc3n2)[C@]2(C)[C@H](C)CC[C@]3(CCC(=O)[C@H]32)[C@@H](C)[C@@H]1O
Staphylococcus aureus [1]
  inhibition zone diameter: 22.1 mm
Staphylococcus aureus [5]
  MIC: 0.488 µg/mL (≈ 0.769 µM)
Escherichia coli [7]
  MIC: 3.91 µg/mL (≈ 6.15 µM)
Streptococcus agalactiae [9]
  MIC: 0.244 µg/mL (≈ 0.384 µM)

## C=C[C@]1(C)C[C@@H](OC(=O)CSc2nc(N/N=C/c3ccccc3OC)c3ccsc3n2)[C@]2(C)[C@H](C)CC[C@]3(CCC(=O)[C@H]32)[C@@H](C)[C@@H]1O
Staphylococcus aureus [1]
  inhibition zone diameter: 21.1 mm
Staphylococcus aureus [5]
  MIC: 0.977 µg/mL (≈ 1.44 µM)
Escherichia coli [7]
  MIC: > 15.6 µg/mL
Streptococcus agalactiae [9]
  MIC: 0.244 µg/mL (≈ 0.361 µM)

## C=C[C@]1(C)C[C@@H](OC(=O)CSc2nccc(N3CCN(CC)CC3)n2)[C@]2(C)[C@H](C)CC[C@]3(CCC(=O)[C@H]32)[C@@H](C)[C@@H]1O
Staphylococcus aureus [1]
  inhibition zone diameter: 28.6 mm
Staphylococcus aureus [5]
  MIC: 0.122 µg/mL (≈ 0.209 µM)
Escherichia coli [7]
  MIC: 1.95 µg/mL (≈ 3.34 µM)
Streptococcus agalactiae [9]
  MIC: 0.122 µg/mL (≈ 0.209 µM)

## C=C[C@]1(C)C[C@@H](OC(=O)CSc2nc(N/N=C/c3ccc(C(F)(F)F)cc3)c3ccsc3n2)[C@]2(C)[C@H](C)CC[C@]3(CCC(=O)[C@H]32)[C@@H](C)[C@@H]1O
Staphylococcus aureus [1]
  inhibition zone diameter: 22.2 mm
Staphylococcus aureus [5]
  MIC: 7.81 µg/mL (≈ 10.9 µM)
Escherichia coli [7]
  MIC: > 15.6 µg/mL
Streptococcus agalactiae [9]
  MIC: 0.244 µg/mL (≈ 0.341 µM)

## C=C[C@]1(C)C[C@@H](OC(=O)CSc2nc(N/N=C/c3ccc(OC)cc3O)c3ccsc3n2)[C@]2(C)[C@H](C)CC[C@]3(CCC(=O)[C@H]32)[C@@H](C)[C@@H]1O
Staphylococcus aureus [1]
  inhibition zone diameter: 23 mm
Staphylococcus aureus [5]
  MIC: 7.81 µg/mL (≈ 11.3 µM)
Escherichia coli [7]
  MIC: > 15.6 µg/mL
Streptococcus agalactiae [9]
  MIC: 0.244 µg/mL (≈ 0.352 µM)

## C=C[C@]1(C)C[C@@H](OC(=O)CSc2nc(NCCO)c3c(C)csc3n2)[C@]2(C)[C@H](C)CC[C@]3(CCC(=O)[C@H]32)[C@@H](C)[C@@H]1O
Staphylococcus aureus [1]
  inhibition zone diameter: 25.9 mm
Staphylococcus aureus [5]
  MIC: 0.122 µg/mL (≈ 0.203 µM)
Escherichia coli [7]
  MIC: 0.977 µg/mL (≈ 1.62 µM)
Streptococcus agalactiae [9]
  MIC: 0.488 µg/mL (≈ 0.811 µM)

## C=C[C@]1(C)C[C@@H](OC(=O)CSc2nc(N/N=C/c3ccc(F)cc3F)c3ccsc3n2)[C@]2(C)[C@H](C)CC[C@]3(CCC(=O)[C@H]32)[C@@H](C)[C@@H]1O
Staphylococcus aureus [1]
  inhibition zone diameter: 22.8 mm
Staphylococcus aureus [5]
  MIC: 7.81 µg/mL (≈ 11.4 µM)
Escherichia coli [7]
  MIC: > 15.6 µg/mL
Streptococcus agalactiae [9]
  MIC: 0.061 µg/mL (≈ 0.0893 µM)

## C=C[C@]1(C)C[C@@H](OC(=O)CSc2nc(C)cc(NCCO)n2)[C@]2(C)[C@H](C)CC[C@]3(CCC(=O)[C@H]32)[C@@H](C)[C@@H]1O
Staphylococcus aureus [1]
  inhibition zone diameter: 22.8 mm
Staphylococcus aureus [5]
  MIC: 0.244 µg/mL (≈ 0.447 µM)
Escherichia coli [7]
  MIC: 7.81 µg/mL (≈ 14.3 µM)
Streptococcus agalactiae [9]
  MIC: 0.244 µg/mL (≈ 0.447 µM)

## C=C[C@]1(C)C[C@@H](OC(=O)CS[C@@H]2C[C@H]3CC[C@@H](C2)N3C)[C@]2(C)[C@H](C)CC[C@]3(CCC(=O)[C@H]32)[C@@H](C)[C@@H]1O [RETAPAMULIN]
Staphylococcus aureus [1]
  inhibition zone diameter: 30.4 mm
Staphylococcus aureus [4]
  MIC: 0.0621 µg/mL (≈ 0.12 µM)
Staphylococcus aureus [5]
  MIC: 0.122 µg/mL (≈ 0.236 µM)
Escherichia coli [7]
  MIC: 1.95 µg/mL (≈ 3.77 µM)
Streptococcus agalactiae [9]
  MIC: 0.0305 µg/mL (≈ 0.0589 µM)

## C=C[C@]1(C)C[C@@H](OC(=O)CSc2nc(C)cc(N3CCN(CC)CC3)n2)[C@]2(C)[C@H](C)CC[C@]3(CCC(=O)[C@H]32)[C@@H](C)[C@@H]1O
Staphylococcus aureus [1]
  inhibition zone diameter: 23.9 mm
Staphylococcus aureus [5]
  MIC: 0.244 µg/mL (≈ 0.408 µM)
Escherichia coli [7]
  MIC: 3.91 µg/mL (≈ 6.52 µM)
Streptococcus agalactiae [9]
  MIC: 0.122 µg/mL (≈ 0.204 µM)

## C=C[C@]1(C)C[C@@H](OC(=O)CSc2nc(N3CCSCC3)c3ccsc3n2)[C@]2(C)[C@H](C)CC[C@]3(CCC(=O)[C@H]32)[C@@H](C)[C@@H]1O
Staphylococcus aureus [1]
  inhibition zone diameter: 14 mm
Staphylococcus aureus [5]
  MIC: 7.81 µg/mL (≈ 12.4 µM)
Escherichia coli [7]
  MIC: > 15.6 µg/mL
Streptococcus agalactiae [9]
  MIC: 1.95 µg/mL (≈ 3.1 µM)

## C=C[C@]1(C)C[C@@H](OC(=O)CSc2nc(N(C)C)c3ccsc3n2)[C@]2(C)[C@H](C)CC[C@]3(CCC(=O)[C@H]32)[C@@H](C)[C@@H]1O
Staphylococcus aureus [1]
  inhibition zone diameter: 21.8 mm
Staphylococcus aureus [5]
  MIC: 3.91 µg/mL (≈ 6.83 µM)
Escherichia coli [7]
  MIC: 15.6 µg/mL (≈ 27.3 µM)
Streptococcus agalactiae [9]
  MIC: 1.95 µg/mL (≈ 3.42 µM)

## C=C[C@]1(C)C[C@@H](OC(=O)CSc2nc(N/N=C/c3ccccc3Br)c3ccsc3n2)[C@]2(C)[C@H](C)CC[C@]3(CCC(=O)[C@H]32)[C@@H](C)[C@@H]1O
Staphylococcus aureus [1]
  inhibition zone diameter: 22.8 mm
Staphylococcus aureus [5]
  MIC: 15.6 µg/mL (≈ 21.5 µM)
Escherichia coli [7]
  MIC: > 15.6 µg/mL
Streptococcus agalactiae [9]
  MIC: 0.977 µg/mL (≈ 1.35 µM)

## C=C[C@]1(C)C[C@@H](OC(=O)CSc2nc(N3CCC(C)CC3)c3ccsc3n2)[C@]2(C)[C@H](C)CC[C@]3(CCC(=O)[C@H]32)[C@@H](C)[C@@H]1O
Staphylococcus aureus [1]
  inhibition zone diameter: 10.9 mm
Staphylococcus aureus [5]
  MIC: 15.6 µg/mL (≈ 25 µM)
Escherichia coli [7]
  MIC: > 15.6 µg/mL
Streptococcus agalactiae [9]
  MIC: 7.81 µg/mL (≈ 12.5 µM)
